Laboratory results as given in the supplement of paper PMC10307832.

What was measured:
Experiment in all cases: relative viability (nuclei count vs DMSO), 5 days (fraction); higher = more cells survive
EHT 1864 + Luminespib = compound: C1COCCN1CC2=CC(=O)C(=CO2)OCCCCCSC3=C4C=CC(=CC4=NC=C3)C(F)(F)F [EHT 1864] + CCNC(=O)c1noc(-c2cc(C(C)C)c(O)cc2O)c1-c1ccc(CN2CCOCC2)cc1 [Luminespib] (partner 0.01 µM)
Summary of the method: (§1)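 Relative viability equals treated-well nuclei counts divided by vehicle-well nuclei counts. Counts came from 4× images of lung cancer cell lines grown in 1536-well plates for 5 days after pin-tool dosing on the day after seeding. Dosing used one drug alone or a fixed anchor-drug dose plus five library-drug doses (not always all listed) in √10 steps, and values are medians of duplicate plates.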

EHT 1864 + Bortezomib = compound: C1COCCN1CC2=CC(=O)C(=CO2)OCCCCCSC3=C4C=CC(=CC4=NC=C3)C(F)(F)F [EHT 1864] + CC(C)C[C@H](NC(=O)[C@H](Cc1ccccc1)NC(=O)c1cnccn1)B(O)O [Bortezomib] (partner 0.002 µM)
Summary of the method: as §1

EHT 1864 + Dasatinib = compound: C1COCCN1CC2=CC(=O)C(=CO2)OCCCCCSC3=C4C=CC(=CC4=NC=C3)C(F)(F)F [EHT 1864] + Cc1nc(Nc2ncc(C(=O)Nc3c(C)cccc3Cl)s2)cc(N2CCN(CCO)CC2)n1 [Dasatinib] (partner 0.075 µM)
Summary of the method: as §1

EHT 1864 + Palbociclib = compound: C1COCCN1CC2=CC(=O)C(=CO2)OCCCCCSC3=C4C=CC(=CC4=NC=C3)C(F)(F)F [EHT 1864] + CC(=O)c1c(C)c2cnc(Nc3ccc(N4CCNCC4)cn3)nc2n(C2CCCC2)c1=O [Palbociclib] (partner 0.5 µM)
Summary of the method: as §1

Cell Line | relative viability (EHT 1864 + Luminespib; first compound 0.04 µM) | relative viability (EHT 1864 + Luminespib; first compound 0.1265 µM) | relative viability (EHT 1864 + Luminespib; first compound 0.4 µM) | relative viability (EHT 1864 + Luminespib; first compound 1.265 µM) | relative viability (EHT 1864 + Luminespib; first compound 4 µM) | relative viability (EHT 1864 + Bortezomib; first compound 0.04 µM) | relative viability (EHT 1864 + Bortezomib; first compound 0.1265 µM) | relative viability (EHT 1864 + Bortezomib; first compound 0.4 µM) | relative viability (EHT 1864 + Bortezomib; first compound 1.265 µM) | relative viability (EHT 1864 + Bortezomib; first compound 4 µM) | relative viability (EHT 1864 + Dasatinib; first compound 0.04 µM) | relative viability (EHT 1864 + Dasatinib; first compound 0.1265 µM) | relative viability (EHT 1864 + Dasatinib; first compound 0.4 µM) | relative viability (EHT 1864 + Dasatinib; first compound 1.265 µM) | relative viability (EHT 1864 + Dasatinib; first compound 4 µM) | relative viability (EHT 1864 + Palbociclib; first compound 0.04 µM) | relative viability (EHT 1864 + Palbociclib; first compound 0.1265 µM) | relative viability (EHT 1864 + Palbociclib; first compound 0.4 µM) | relative viability (EHT 1864 + Palbociclib; first compound 1.265 µM) | relative viability (EHT 1864 + Palbociclib; first compound 4 µM)
NCI-H3122 | 0.102 | 0.0742 | 0.089 | 0.101 | 0.102 | 1.03 | 0.973 | 0.96 | 0.99 | 0.965 | 0.809 | 0.285 | 0.667 | 0.817 | 0.885 | 0.172 | 0.21 | 0.211 | 0.203 | 0.201
NCI-H1651 | 0.694 | 0.907 | 0.803 | 0.704 | 0.57 | 0.988 | 0.89 | 0.974 | 0.868 | 0.929 | 0.407 | 0.425 | 0.332 | 0.37 | 0.471 | 0.529 | 0.501 | 0.534 | 0.504 | 0.522
NCI-H838 | 0.274 | 0.237 | 0.383 | 0.266 | 0.293 | 0.873 | 0.47 | 0.778 | 0.906 | 0.614 | 0.207 | 0.252 | 0.304 | 0.277 | 0.269 | 0.208 | 0.185 | 0.266 | 0.223 | 0.244
SK-LU-1 | 0.184 | 0.181 | 0.214 | 0.229 | 0.219 | 1.22 |  | 1.37 | 1.37 | 1.07 | 0.186 | 0.171 | 0.174 | 0.174 | 0.164 | 0.474 | 0.323 | 0.395 | 0.37 | 0.352
NCI-H441 | 0.478 | 0.346 | 0.322 | 0.393 | 0.385 | 0.381 | 0.372 | 0.505 | 0.447 | 0.285 | 0.562 | 0.532 | 0.557 | 0.649 | 0.603 | 0.233 |  | 0.215 | 0.195 | 0.226
NCI-H650 | 0.882 | 0.658 | 0.664 | 0.889 | 0.865 | 0.911 |  | 0.862 | 0.827 | 0.914 | 0.427 | 0.381 | 0.427 | 0.459 | 0.459 | 0.332 | 0.256 | 0.346 | 0.327 | 0.325
NCI-H1792 | 0.393 |  | 0.376 | 0.361 | 0.533 | 0.859 | 0.877 | 0.926 | 0.866 | 0.919 | 0.755 | 0.778 | 0.714 | 0.73 | 0.894 | 0.618 | 0.694 | 0.683 | 0.626 | 0.742
NCI-H1355 | 0.711 | 0.652 | 0.691 | 0.654 | 0.699 | 1.32 | 0.908 | 1.12 | 1.32 | 1.24 | 0.676 | 0.535 | 0.73 | 0.561 | 0.725 | 0.411 | 0.357 | 0.391 | 0.389 | 0.414
